Data from patent publication US20230089867A1, “CYCLIC PENTAMER COMPOUNDS AS PROPROTEIN CONVERTASE SUBTILISIN/KEXIN TYPE 9 (PCSK9) INHIBITORS FOR THE TREATMENT OF METABOLIC DISORDER” (Novartis AG, priority 2018, published 2023).
Read-outs that look alike come from different tables or passages of the source.

Experiments:
[1] = amide bond, 18-membered ring, HATU/HOAt/2,6-lutidine
[2] = amide bond, 18-membered ring, HATU/HOAt/2,6-lutidine, DCM, 45.0 °C
human PCSK9 = human PCSK9 (Homo sapiens, UniProt Q8NBP7); test: PCSK9 ligand binding TR-FRET assay (interference with binding of human PCSK9 to human LDLR); settings: for Max % inhibition: PCSK9 FRET assay, efficacy (Amax), 100% = 1 uM unlabeled human PCSK9, 0% = DMSO; for IC50: TR-FRET, human PCSK9 Alexa Fluor 647 / human LDLR extracellular domain-Europium Kryptate, read-out: PCSK9 FRET Assay IC50
Summary of the method: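 Threefold compound dilutions were pre-incubated 30 min with PCSK9, after which 4 nM Europium Kryptate-tagged human LDLR ectodomain was added for a further 2 h.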

human PCSK9, sequence (Q8NBP7 153-692): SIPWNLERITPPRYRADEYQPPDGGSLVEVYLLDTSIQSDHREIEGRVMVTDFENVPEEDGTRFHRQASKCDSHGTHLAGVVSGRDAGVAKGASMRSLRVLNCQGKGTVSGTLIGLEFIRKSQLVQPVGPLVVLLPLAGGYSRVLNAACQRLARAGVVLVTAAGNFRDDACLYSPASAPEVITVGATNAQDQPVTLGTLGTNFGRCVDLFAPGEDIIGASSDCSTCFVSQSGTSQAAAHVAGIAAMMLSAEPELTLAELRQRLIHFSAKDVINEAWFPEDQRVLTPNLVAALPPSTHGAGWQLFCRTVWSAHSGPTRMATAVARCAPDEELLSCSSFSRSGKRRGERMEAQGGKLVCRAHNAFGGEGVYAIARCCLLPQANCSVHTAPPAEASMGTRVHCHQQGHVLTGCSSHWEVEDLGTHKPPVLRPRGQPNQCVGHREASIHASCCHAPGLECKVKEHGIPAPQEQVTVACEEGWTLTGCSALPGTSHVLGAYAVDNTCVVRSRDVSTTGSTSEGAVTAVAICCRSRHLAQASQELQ
human PCSK9, sequence (Q8NBP7 31-152 partner limits assumed): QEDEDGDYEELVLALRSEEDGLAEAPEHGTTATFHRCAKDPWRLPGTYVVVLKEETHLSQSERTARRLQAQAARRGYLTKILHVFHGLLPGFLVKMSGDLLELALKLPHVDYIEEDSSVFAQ

Molecule: (4S,7S,10S,16aS,20aS)-4-(4-chlorobenzyl)-11-(2-(difluoromethoxy)-6-(4-(2-((dimethylamino)methyl)-1-methyl-1H-imidazol-5-yl)phenoxy)benzyl)-7-(methoxymethyl)-5,10,16-trimethylhexadecahydro-benzo[l][1,4,7,11,14]pentaazacyclooctadecine-2,6,9,12,15(3H)-pentaone
- ring closure, yield after HPLC ([1]; DCM/NMP 10:1, 0.91 mM, 40.0 °C): 22%

Molecule: (4S,7S,10S,14R,16aS,20aS)-14-Benzyl-11-(4-chloro-2-(4-(2-((dimethylamino)methyl)-1-methyl-1H-imidazol-5-yl)phenoxy)benzyl)-4-(4-chlorobenzyl)-7-(methoxymethyl)-5,16-dimethyl-10-(3-(3,3,4,4-tetrafluoropyrrolidin-1-yl)propyl)hexadecahydrobenzo[l][1,4,7,11,14]pentaazacyclooctadecine-2,6,9,12,15(3H)-pentaone
- ring closure, yield after HPLC ([1]; DCM, 0.524 mM, 39.0 °C): 17%

Molecule: (2S,5S,8S,13S,16R)-16-benzyl-8-(4-chlorobenzyl)-1-(4-ethyl-2-(4-(1-methyl-2-(pyrrolidin-1-ylmethyl)-1H-imidazol-5-yl)phenoxy)benzyl)-5-(methoxymethyl)-2,7,13,14-tetramethyl-1,4,7,11,14-pentaazacyclooctadecane-3,6,10,15,18-pentaone hydrochloride
- ring closure, yield after HPLC ([1]; DCM, 0.777 mM, 40.0 °C): 47%

Molecule: COC[C@@H]1NC(=O)[C@H](C)N(Cc2ccc(Cl)cc2Oc2ccc(-c3cnc(CN(C)C)n3C)cc2)C(=O)C[C@@H](Cc2cccc(C)n2)C(=O)N(C)[C@H]2CCCC[C@@H]2NC(=O)C[C@H](Cc2ccc(Cl)cc2)N(C)C1=O [Compound 265, (4S,7S,10S,14R,16aS,20aS)-11-(4-chloro-2-(4-(2-((dimethylamino)methyl)-1-methyl-1H-imidazol-5-yl)phenoxy)benzyl)-4-(4-chlorobenzyl)-7-(methoxymethyl)-5,10,16-trimethyl-14-((6-methylpyridin-2-yl)methyl)hexadecahydrobenzo-[l][1,4,7,11,14]pentaazacyclooctadecine-2,6,9,12,15(3H)-pentaone]
- ring closure, isolated yield ([2]; from (R)-4-(((1S,2S)-2-((S)-3-((S)-2-((S)-2-((4-chloro-2-(4-(2-((dimethylamino)methyl)-1-methyl-1H-imidazol-5-yl)phenoxy)benzyl)amino)propanamido)-3-methoxy-N-methylpropanamido)-4-(4-chlorophenyl)butanamido)cyclohexyl)(methyl)amino)-3-((6-methylpyridin-2-yl)methyl)-4-oxobutanoic acid): 31.1%
- Max % inhibition (human PCSK9): 104.88%
- IC50 (human PCSK9): 0.312 µM

Molecule: COC[C@@H]1NC(=O)[C@H](C)N(Cc2ccc(Cl)cc2Oc2ccc(-c3cnc(CN(C)C)n3C)cc2)C(=O)C[C@@H](Cc2ccccc2)C(=O)N(C)C2CC2NC(=O)C[C@H](Cc2ccc(Cl)cc2)N(C)C1=O.O=C(O)C(F)(F)F (mixture of isomers) [Compound 147, (5S,8S,11S,15R)-15-benzyl-12-(4-chloro-2-(4-(2-((dimethylamino)methyl)-1-methyl-1H-imidazol-5-yl)phenoxy)benzyl)-5-(4-chlorobenzyl)-8-(methoxymethyl)-6,11,17-trimethyl-2,6,9,12,17-pentaazabicyclo[16.1.0]nonadecane-3,7,10,13,16-pentaone trifluoroacetate]
- ring closure, isolated yield ([2]; from (3R)-3-benzyl-4-((2-((S)-3-((S)-2-((S)-2-((4-chloro-2-(4-(2-((dimethylamino)methyl)-1-methyl-1H-imidazol-5-yl)phenoxy)benzyl)amino)propanamido)-3-methoxy-N-methylpropanamido)-4-(4-chlorophenyl)butanamido)cyclopropyl)(methyl)amino)-4-oxobutanoic acid?): 19%
- Max % inhibition (human PCSK9): 104.16%
- IC50 (human PCSK9): 0.0037 µM

Molecule: CCOC[C@@H]1NC(=O)[C@H](C)N(Cc2ccc(Cl)cc2Oc2ccc(-c3cnc(CN(C)C)n3C)cc2)C(=O)C[C@@H](C)C(=O)N(C)[C@@H](C)CNC(=O)C[C@H](Cc2ccc(Cl)cc2)N(C)C1=O.O=CO [Compound 53, (2S,5S,8S,13S,16R)-1-(4-chloro-2-(4-(2-((dimethylamino)methyl)-1-methyl-1H-imidazol-5-yl)phenoxy)benzyl)-8-(4-chlorobenzyl)-5-(ethoxymethyl)-2,7,13,14,16-pentamethyl-1,4,7,11,14-pentaaza cyclooctadecane-3,6,10,15,18-pentaone formate]
- ring closure, isolated yield ([2]; from (3S,6S,9S,14S,17R)-1-(4-chloro-2-(4-(2-((dimethylamino)methyl)-1-methyl-1H-imidazol-5-yl)phenoxy)phenyl)-9-(4-chlorobenzyl)-6-(ethoxymethyl)-3,8,14,15,17-pentamethyl-4,7,11,16-tetraoxo-2,5,8,12,15-pentaazanonadecan-19-oic acid hydrochloride, 1.27 mM): 9%
- Max % inhibition (human PCSK9): 92.32%
- IC50 (human PCSK9): 0.0211 µM

Molecule: C=CC[C@@H]1CC(=O)N(Cc2ccc(Cl)cc2Oc2ccc(-c3cnc(CN(C)C)n3C)cc2)[C@@H](C)C(=O)N[C@@H](COC)C(=O)N(C)[C@@H](Cc2ccc(Cl)cc2)CC(=O)NC[C@H](C)N(C)C1=O [Compound 44, (2S,5S,8S,13S,16R)-16-allyl-1-(4-chloro-2-(4-(2-((dimethylamino)methyl)-1-methyl-1H-imidazol-5-yl)phenoxy)benzyl)-8-(4-chlorobenzyl)-5-(methoxymethyl)-2,7,13,14-tetramethyl-1,4,7,11,14-pentaaza cyclooctadecane-3,6,10,15,18-pentaone]
- ring closure, isolated yield ([2]; from (3S,6S,9S,14S,17R)-17-allyl-1-(4-chloro-2-(4-(2-((dimethylamino)methyl)-1-methyl-1H-imidazol-5-yl)phenoxy)phenyl)-9-(4-chlorobenzyl)-6-(methoxymethyl)-3,8,14,15-tetramethyl-4,7,11,16-tetraoxo-2,5,8,12,15-pentaazanonadecan-19-oic acid): 26%
- Max % inhibition (human PCSK9): 102.15%
- IC50 (human PCSK9): 0.0026 µM
